# Measurements published in patent US20250204525A1, “ANTIMICROBIAL COMPOSITIONS” (Curie Co. Inc., priority 2023, published 2025).
# Tested on: bacterial pool of E. coli, S. aureus, and P. aeruginosa
# Test: Antibacterial challenge testing of foaming hand soap (Example 2A)
# Type: cell-based
# Experimental: For antibacterial challenge testing, one vial each of E. coli, S. aureus, and P. aeruginosa was rehydrated in 1 mL peptone buffer. The concentrations of the cell suspensions were determined based on the Certificates of Analysis accompanying each bacteria vial, and the suspensions were combined and diluted in BPDB to make a 3×10^8 CFU/mL bacterial pool composed of 1×10^8 CFU/mL of each of E. coli, S. aureus, and P. aeruginosa at a final volume of 1 mL. For antifungal challenge testing, one vial of C. albicans was rehydrated in 1 mL peptone buffer. The concentration of the cell suspension was determined based on the Certificate of Analysis accompanying the vial of yeast. The resuspended cells were diluted in BPDB to 3×10^7 CFU/mL at a final volume of 1 mL.
# The enumeration of the microbial population in antibacterial and antifungal challenge testing was performed in the following manner. At day 0, a 3-mL sample was collected from each of the prepared formulations and inoculated with 0.03 mL of the bacterial pool to obtain a final inoculum of 3×10^6 CFU/mL. The inoculated samples were maintained under the same conditions from day 0 to day 7. At each analysis timepoint, the inoculated samples were subjected to 10-fold serial dilutions in BPDB to obtain diluted samples such that 25-250 colonies were estimated to be yielded from 0.1 mL of the diluted sample plated on a tryptic soy agar petri dish containing Polysorbate 80 and Lecithin. The petri dishes were incubated at 31.5+/−1° C. for 24 to 48 hours. The petri dishes were then removed from the incubator and the colonies were counted and multiplied by their corresponding dilution factors to determine the bacterial concentrations (in CFU/mL) of the samples. At day 2 and day 7 post-inoculation, the serial dilutions, plating, and colony counting were repeated to monitor the changes in bacterial population.
# [1] = foaming hand soap pH 6.5, sodium benzoate 0.5% alone
# [2] = foaming hand soap pH 6.5, sodium benzoate 0.5% alone, listed as sodium benzoate
# [3] = foaming hand soap pH 7.0, sodium benzoate 1% alone
# [4] = foaming hand soap pH 7.0, sodium benzoate 1% alone, listed as sodium benzoate
# [5] = foaming hand soap pH 7.5, sodium benzoate 1% alone
# [6] = foaming hand soap pH 8.0, sodium benzoate 1% alone
compound,measurement,setting,value
"O=C([O-])c1ccccc1.[Na+] [Sodium Benzoate, Sodium benzoate]",Day 2 log reduction in CFU/mL compared to Day 0,[1],0.84 log CFU/mL
same,Day 2 log reduction in CFU/mL compared to Day 0,[2],Modest reductions
same,Day 7 log reduction in CFU/mL compared to Day 0,[1],−1.25 log CFU/mL
same,Day 7 log reduction in CFU/mL compared to Day 0,[2],no reduction
same,Day 2 log reduction in CFU/mL compared to Day 0,[3],0.88 log CFU/mL
same,Day 2 log reduction in CFU/mL compared to Day 0,[4],Modest reductions
same,Day 7 log reduction in CFU/mL compared to Day 0,[3],−1.39 log CFU/mL
same,Day 7 log reduction in CFU/mL compared to Day 0,[4],no reduction
same,Day 2 log reduction in CFU/mL compared to Day 0,[5],−0.62 log CFU/mL
same,Day 7 log reduction in CFU/mL compared to Day 0,[5],−1.23 log CFU/mL
same,Day 7 log reduction in CFU/mL compared to Day 0,"foaming hand soap pH 7.5, sodium benzoate 1% alone, listed as sodium benzoate",no reduction
same,Day 2 log reduction in CFU/mL compared to Day 0,[6],−0.90 log CFU/mL
same,Day 7 log reduction in CFU/mL compared to Day 0,[6],−0.91 log CFU/mL
same,Day 7 log reduction in CFU/mL compared to Day 0,"foaming hand soap pH 8.0, sodium benzoate 1% alone, listed as sodium benzoate",no reduction
